Assays:
[1] = biological target: T1, Interleukin-1 receptor-associated kinase 4 (Homo sapiens) (UniProt Q9NWZ3); assay: Inhibition of human IRAK4 catalytic domain expressed in baculovirus assessed as substrate phosphorylation using fluorescence-labelled peptides as substrate at 95 uM after 90 mins by microfluidic peptide phosphorylation assay
T1 sequence (whole entry): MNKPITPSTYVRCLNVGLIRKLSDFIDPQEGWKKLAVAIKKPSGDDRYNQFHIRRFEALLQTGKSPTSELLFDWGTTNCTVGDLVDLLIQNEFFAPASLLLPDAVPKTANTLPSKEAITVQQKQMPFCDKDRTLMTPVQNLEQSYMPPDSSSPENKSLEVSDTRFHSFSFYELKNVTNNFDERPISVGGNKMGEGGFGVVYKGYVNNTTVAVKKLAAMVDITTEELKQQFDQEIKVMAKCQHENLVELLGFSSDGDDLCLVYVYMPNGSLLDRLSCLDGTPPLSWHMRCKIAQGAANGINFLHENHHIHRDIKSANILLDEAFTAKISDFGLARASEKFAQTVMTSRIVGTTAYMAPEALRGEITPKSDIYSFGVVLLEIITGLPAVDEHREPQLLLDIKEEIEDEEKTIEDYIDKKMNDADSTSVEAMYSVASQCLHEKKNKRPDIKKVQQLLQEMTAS

[2] = biological target: T2, Serine/threonine-protein kinase Nek2 (Homo sapiens) (UniProt P51955); assay: Inhibition of human full length NEK2 expressed in baculovirus assessed as substrate phosphorylation using fluorescence-labelled peptides as substrate at 8 uM after 90 mins by microfluidic peptide phosphorylation assay
T2 sequence (whole entry): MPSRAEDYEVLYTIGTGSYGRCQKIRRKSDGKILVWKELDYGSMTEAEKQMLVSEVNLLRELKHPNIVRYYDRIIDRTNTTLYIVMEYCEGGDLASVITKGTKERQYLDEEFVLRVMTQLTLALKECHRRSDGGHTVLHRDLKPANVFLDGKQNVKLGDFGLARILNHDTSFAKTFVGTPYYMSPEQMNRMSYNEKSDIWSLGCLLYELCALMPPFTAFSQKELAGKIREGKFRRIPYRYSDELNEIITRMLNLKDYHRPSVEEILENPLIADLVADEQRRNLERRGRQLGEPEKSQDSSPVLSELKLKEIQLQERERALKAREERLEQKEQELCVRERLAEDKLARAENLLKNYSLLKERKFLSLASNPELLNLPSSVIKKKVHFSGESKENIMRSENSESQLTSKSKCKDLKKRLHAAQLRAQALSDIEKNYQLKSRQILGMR

[3] = biological target: Protein kinase C delta type (Homo sapiens) (UniProt Q05655); assay: Inhibition of human truncated PKC delta expressed in baculovirus assessed as substrate phosphorylation using fluorescence-labelled peptides as substrate at 2 uM after 90 mins by microfluidic peptide phosphorylation assay
[4] = biological target: Hepatocyte growth factor receptor (Homo sapiens) (UniProt P08581); assay: Inhibition of human MET cytoplasmic domain expressed in baculovirus assessed as substrate phosphorylation using fluorescence-labelled peptides as substrate at 2 uM after 90 mins by microfluidic peptide phosphorylation assay
[5] = biological target: Calcium/calmodulin-dependent protein kinase type II subunit delta (Homo sapiens) (UniProt Q13557); assay: Inhibition of human full length CAMK2D expressed in baculovirus assessed as substrate phosphorylation using fluorescence-labelled peptides as substrate at 1000 uM after 90 mins by microfluidic peptide phosphorylation assay
Chain of Calcium/calmodulin-dependent protein kinase type II subunit delta (Homo sapiens) (Q13557 whole entry, the tested form may be a part): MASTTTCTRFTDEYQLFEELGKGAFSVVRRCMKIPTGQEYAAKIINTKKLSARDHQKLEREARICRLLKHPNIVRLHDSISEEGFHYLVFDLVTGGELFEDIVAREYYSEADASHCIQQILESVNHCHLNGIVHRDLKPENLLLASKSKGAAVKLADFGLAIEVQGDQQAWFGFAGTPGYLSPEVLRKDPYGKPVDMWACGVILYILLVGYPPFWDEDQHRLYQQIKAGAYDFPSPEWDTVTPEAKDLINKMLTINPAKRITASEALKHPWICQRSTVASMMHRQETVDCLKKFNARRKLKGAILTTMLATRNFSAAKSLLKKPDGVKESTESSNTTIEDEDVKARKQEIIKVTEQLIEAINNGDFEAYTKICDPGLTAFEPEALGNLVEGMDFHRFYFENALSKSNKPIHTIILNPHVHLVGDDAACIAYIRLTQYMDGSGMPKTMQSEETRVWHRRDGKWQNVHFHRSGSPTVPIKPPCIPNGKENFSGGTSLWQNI

[6] = biological target: Mitogen-activated protein kinase kinase kinase kinase 4 (Homo sapiens) (UniProt O95819); assay: Inhibition of human HGK catalytic domain expressed in baculovirus assessed as substrate phosphorylation using fluorescence-labelled peptides as substrate at 1000 uM after 90 mins by microfluidic peptide phosphorylation assay
Chain of Mitogen-activated protein kinase kinase kinase kinase 4 (Homo sapiens) (O95819 2-1239 limits assumed): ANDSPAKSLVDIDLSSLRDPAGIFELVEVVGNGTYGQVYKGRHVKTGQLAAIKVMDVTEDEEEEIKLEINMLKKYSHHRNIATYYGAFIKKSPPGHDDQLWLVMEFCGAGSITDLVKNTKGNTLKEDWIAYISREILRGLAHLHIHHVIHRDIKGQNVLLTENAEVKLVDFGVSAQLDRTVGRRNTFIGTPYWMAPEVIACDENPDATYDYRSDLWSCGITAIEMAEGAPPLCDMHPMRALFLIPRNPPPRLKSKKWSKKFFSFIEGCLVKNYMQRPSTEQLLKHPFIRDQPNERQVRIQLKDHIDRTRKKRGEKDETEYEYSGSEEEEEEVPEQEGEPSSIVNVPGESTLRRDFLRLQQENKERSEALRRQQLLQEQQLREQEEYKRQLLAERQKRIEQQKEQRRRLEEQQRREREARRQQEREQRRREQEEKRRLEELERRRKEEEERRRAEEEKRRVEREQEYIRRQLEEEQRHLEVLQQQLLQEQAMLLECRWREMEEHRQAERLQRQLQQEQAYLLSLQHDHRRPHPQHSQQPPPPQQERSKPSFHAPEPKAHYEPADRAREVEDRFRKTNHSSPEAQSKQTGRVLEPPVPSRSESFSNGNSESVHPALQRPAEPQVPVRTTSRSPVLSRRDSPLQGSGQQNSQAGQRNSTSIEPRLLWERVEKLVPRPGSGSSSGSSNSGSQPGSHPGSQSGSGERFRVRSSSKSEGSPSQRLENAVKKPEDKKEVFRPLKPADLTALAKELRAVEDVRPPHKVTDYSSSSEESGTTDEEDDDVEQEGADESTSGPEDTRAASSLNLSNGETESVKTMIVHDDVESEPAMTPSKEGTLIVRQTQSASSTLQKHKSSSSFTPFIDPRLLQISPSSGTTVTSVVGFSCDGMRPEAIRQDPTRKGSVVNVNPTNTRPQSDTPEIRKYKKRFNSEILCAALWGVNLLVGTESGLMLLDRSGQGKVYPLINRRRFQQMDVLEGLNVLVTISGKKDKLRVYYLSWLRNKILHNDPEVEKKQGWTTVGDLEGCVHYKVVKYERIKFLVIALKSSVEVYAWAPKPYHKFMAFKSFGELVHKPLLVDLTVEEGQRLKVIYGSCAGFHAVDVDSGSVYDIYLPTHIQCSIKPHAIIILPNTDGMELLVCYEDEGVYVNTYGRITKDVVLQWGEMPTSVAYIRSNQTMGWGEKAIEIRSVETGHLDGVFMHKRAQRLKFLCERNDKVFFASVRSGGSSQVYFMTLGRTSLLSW

[7] = biological target: Protein kinase C beta type (Homo sapiens) (UniProt P05771); assay: Inhibition of human full length PKC beta2 expressed in baculovirus assessed as substrate phosphorylation using fluorescence-labelled peptides as substrate at 1000 uM after 90 mins by microfluidic peptide phosphorylation assay
Chain of Protein kinase C beta type (Homo sapiens) (P05771 2-671 limits assumed): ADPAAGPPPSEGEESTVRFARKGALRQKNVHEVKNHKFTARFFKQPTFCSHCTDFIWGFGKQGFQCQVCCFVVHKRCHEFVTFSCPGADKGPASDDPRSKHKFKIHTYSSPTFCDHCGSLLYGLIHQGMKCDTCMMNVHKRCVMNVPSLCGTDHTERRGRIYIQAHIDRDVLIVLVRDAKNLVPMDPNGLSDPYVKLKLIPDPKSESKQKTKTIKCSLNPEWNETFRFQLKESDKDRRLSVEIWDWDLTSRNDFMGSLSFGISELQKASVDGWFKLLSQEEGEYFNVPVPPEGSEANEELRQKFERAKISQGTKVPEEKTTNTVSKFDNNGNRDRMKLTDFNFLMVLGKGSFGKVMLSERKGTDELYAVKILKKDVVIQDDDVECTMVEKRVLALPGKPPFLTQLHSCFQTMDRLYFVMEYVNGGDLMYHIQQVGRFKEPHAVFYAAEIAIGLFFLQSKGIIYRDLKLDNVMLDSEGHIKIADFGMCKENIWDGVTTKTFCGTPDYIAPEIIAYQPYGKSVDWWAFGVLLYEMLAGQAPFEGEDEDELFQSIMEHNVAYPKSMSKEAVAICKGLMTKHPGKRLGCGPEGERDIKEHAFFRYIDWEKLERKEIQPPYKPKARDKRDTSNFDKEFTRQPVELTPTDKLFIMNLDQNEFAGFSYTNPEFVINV

[8] = biological target: Insulin receptor (Homo sapiens) (UniProt P06213); assay: Inhibition of human INSR catalytic domain expressed in baculovirus assessed as substrate phosphorylation using fluorescence-labelled peptides as substrate at 1000 uM after 90 mins by microfluidic peptide phosphorylation assay
[9] = biological target: Ribosomal protein S6 kinase alpha-3 (Homo sapiens) (UniProt P51812); assay: Inhibition of human full length RSK2 expressed in baculovirus assessed as substrate phosphorylation using fluorescence-labelled peptides as substrate at 1000 uM after 90 mins by microfluidic peptide phosphorylation assay
Chain of Ribosomal protein S6 kinase alpha-3 (Homo sapiens) (P51812 whole entry): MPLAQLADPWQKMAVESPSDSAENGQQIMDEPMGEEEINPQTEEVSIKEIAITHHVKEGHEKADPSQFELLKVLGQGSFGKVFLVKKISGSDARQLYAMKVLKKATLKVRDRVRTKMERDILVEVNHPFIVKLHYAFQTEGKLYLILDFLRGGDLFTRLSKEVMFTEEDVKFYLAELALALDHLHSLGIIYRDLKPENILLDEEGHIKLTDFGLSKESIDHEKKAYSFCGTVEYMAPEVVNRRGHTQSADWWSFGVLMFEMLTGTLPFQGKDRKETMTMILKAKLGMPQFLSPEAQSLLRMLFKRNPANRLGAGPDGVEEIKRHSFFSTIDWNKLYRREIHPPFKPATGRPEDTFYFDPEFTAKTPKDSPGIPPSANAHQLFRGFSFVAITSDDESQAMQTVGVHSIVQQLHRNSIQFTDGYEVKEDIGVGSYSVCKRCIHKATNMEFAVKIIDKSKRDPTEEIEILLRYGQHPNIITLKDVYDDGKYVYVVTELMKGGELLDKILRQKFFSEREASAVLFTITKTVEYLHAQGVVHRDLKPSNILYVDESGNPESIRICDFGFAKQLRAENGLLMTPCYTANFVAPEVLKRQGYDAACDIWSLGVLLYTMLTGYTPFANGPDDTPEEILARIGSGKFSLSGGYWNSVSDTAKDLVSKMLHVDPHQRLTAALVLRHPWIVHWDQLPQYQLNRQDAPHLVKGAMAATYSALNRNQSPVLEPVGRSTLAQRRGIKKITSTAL

[10] = biological target: Serine/threonine-protein kinase Chk2 (Homo sapiens) (UniProt O96017); assay: Inhibition of human full length CHK2 expressed in baculovirus assessed as substrate phosphorylation using fluorescence-labelled peptides as substrate at 0.06 uM after 90 mins by microfluidic peptide phosphorylation assay
Chain of Serine/threonine-protein kinase Chk2 (Homo sapiens) (O96017 whole entry, the tested form may be a part): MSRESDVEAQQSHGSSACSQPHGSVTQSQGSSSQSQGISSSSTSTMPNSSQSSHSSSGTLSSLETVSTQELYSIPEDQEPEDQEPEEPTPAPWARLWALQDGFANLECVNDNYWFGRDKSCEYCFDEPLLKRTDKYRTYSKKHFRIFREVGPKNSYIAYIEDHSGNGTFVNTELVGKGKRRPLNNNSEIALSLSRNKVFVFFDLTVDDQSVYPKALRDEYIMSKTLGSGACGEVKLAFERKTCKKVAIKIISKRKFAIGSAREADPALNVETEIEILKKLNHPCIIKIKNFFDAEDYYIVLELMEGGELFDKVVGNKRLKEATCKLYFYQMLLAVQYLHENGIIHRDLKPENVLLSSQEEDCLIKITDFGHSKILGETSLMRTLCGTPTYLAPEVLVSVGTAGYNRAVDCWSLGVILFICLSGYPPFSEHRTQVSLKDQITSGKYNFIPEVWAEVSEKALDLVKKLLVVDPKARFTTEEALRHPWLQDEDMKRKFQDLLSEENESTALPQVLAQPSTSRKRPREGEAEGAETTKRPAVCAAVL

[11] = biological target: Mitogen-activated protein kinase 14 (Homo sapiens) (UniProt Q16539); assay: Inhibition of human truncated p38 alpha expressed in Escherichia coli cell assessed as substrate phosphorylation using fluorescence-labelled peptides as substrate at 0.06 uM after 90 mins by microfluidic peptide phosphorylation assay
[12] = biological target: Tyrosine-protein kinase Lck (Homo sapiens) (UniProt P06239); assay: Inhibition of human full length LCK expressed in baculovirus assessed as substrate phosphorylation using fluorescence-labelled peptides as substrate at […] after 90 mins by microfluidic peptide phosphorylation assay
Chain of Tyrosine-protein kinase Lck (Homo sapiens) (P06239 2-509 limits assumed): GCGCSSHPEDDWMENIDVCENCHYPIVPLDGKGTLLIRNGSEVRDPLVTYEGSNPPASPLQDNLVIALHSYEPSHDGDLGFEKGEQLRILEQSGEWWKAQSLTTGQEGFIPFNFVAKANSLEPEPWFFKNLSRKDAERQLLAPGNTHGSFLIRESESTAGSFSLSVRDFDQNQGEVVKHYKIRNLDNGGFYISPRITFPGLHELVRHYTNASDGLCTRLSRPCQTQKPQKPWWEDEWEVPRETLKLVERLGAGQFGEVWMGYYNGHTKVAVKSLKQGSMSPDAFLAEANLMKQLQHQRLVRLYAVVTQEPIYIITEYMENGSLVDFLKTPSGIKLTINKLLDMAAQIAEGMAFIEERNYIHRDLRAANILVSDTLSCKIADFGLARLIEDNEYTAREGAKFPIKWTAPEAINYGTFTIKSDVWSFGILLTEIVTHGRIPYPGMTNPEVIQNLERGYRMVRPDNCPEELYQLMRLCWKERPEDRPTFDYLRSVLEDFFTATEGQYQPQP

[13] = biological target: Cyclin-dependent kinase 2 (Homo sapiens) (UniProt P24941); assay: Inhibition of human full length CDK2 expressed in baculovirus assessed as substrate phosphorylation using fluorescence-labelled peptides as substrate at […] after 90 mins by microfluidic peptide phosphorylation assay
Homo sapiens = species: Homo sapiens; assay: Inhibition of human full length PKA expressed in baculovirus assessed as substrate phosphorylation using fluorescence-labelled peptides as substrate at 420 uM after 90 mins by microfluidic peptide phosphorylation assay
[14] = biological target: Fibroblast growth factor receptor 2 (Homo sapiens) (UniProt P21802); assay: Inhibition of human FGFR2 catalytic domain expressed in baculovirus assessed as substrate phosphorylation using fluorescence-labelled peptides as substrate at 70 uM after 90 mins by microfluidic peptide phosphorylation assay
Chain of Fibroblast growth factor receptor 2 (Homo sapiens) (P21802 22-821 limits assumed): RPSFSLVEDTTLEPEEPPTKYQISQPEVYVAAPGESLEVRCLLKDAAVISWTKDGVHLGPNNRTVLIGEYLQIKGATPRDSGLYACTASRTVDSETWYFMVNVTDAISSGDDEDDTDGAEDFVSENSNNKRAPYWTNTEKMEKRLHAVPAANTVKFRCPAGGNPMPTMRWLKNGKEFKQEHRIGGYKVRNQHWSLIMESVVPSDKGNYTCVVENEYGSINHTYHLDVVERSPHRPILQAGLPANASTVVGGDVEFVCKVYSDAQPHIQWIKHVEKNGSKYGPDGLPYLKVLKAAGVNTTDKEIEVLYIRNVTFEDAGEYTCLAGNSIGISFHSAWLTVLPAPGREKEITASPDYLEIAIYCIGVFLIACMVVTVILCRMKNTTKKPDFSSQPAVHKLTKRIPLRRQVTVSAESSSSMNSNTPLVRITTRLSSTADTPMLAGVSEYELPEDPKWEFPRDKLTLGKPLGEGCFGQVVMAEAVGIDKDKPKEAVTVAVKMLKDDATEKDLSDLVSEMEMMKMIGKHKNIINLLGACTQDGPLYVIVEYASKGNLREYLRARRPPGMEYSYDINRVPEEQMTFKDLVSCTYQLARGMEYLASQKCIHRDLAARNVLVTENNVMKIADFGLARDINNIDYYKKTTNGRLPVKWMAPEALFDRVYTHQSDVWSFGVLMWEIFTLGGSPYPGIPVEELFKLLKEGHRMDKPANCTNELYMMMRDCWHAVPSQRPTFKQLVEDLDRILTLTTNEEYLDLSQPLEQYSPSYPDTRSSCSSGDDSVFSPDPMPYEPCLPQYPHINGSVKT

[15] = biological target: T3, Aurora kinase C (Homo sapiens) (UniProt Q9UQB9); assay: Inhibition of human full length AurC expressed in baculovirus assessed as substrate phosphorylation using fluorescence-labelled peptides as substrate at 70 uM after 90 mins by microfluidic peptide phosphorylation assay
T3 sequence (whole entry): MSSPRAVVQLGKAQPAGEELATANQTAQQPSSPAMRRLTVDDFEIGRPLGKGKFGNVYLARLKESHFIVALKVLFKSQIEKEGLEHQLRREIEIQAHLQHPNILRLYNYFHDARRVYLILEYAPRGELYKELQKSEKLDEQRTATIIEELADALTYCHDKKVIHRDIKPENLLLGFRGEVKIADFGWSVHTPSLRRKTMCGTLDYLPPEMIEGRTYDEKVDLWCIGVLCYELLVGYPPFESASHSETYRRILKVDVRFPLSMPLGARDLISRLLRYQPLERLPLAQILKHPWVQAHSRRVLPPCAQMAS

**Q.** `NCCc1ccc(-c2ncnc3[nH]cnc23)cc1` was tested. Which inhibition [1] did it give?
**A.** Its inhibition is 34%.

**Q.** `NCC1CCN(c2ncnc3[nH]ccc23)CC1` was tested. Which inhibition [2] did it give?
**A.** The inhibition was 0%.

**Q.** What does the source list for `NC1CCN(c2ncnc3[nH]ccc23)CC1`?
**A.** inhibition [3]: 33%; inhibition [4]: 0%

**Q.** Which inhibition [5] does the source give for `c1cnc2[nH]ccc2c1` here?
**A.** Its inhibition is 37.5%.

**Q.** And the inhibition [6]?
**A.** The inhibition was 90%.

**Q.** And the inhibition [7]?
**A.** Its inhibition is 21%.

**Q.** What about the inhibition [8] of the same compound?
**A.** Its inhibition is 29%.

**Q.** And the inhibition [9]?
**A.** Its inhibition is 68.5%.

**Q.** How did the inhibition [10] turn out when `NC1(Cc2ccc(Cl)cc2)CCN(c2ncnc3[nH]ccc23)CC1` was run?
**A.** The inhibition was 0%.

**Q.** And the inhibition [11]?
**A.** The inhibition was 0%.

**Q.** With `COC(=O)c1cnc(Nc2cnc(C#N)cn2)cc1NCC1CCNCC1` as the compound, how does the inhibition [12] read?
**A.** Its inhibition is 5.5%.

**Q.** And the inhibition [13]?
**A.** Its inhibition is 6%.

**Q.** Which inhibition (Homo sapiens) does the source give for `c1nc(N2CCOCC2)c2nc[nH]c2n1` here?
**A.** Its inhibition is 92.5%.

**Q.** Which results are given for `CNCc1ccc(-c2ncnc3[nH]cnc23)cc1`?
**A.** inhibition [14]: 27%; inhibition [15]: 73%
